Assay results published in US8618074B2, “GPCR enhanced neuroprotection to treat brain injury” (Board of Regents of the University of Texas System, priority 2007, dated 2013).

What was measured:
[1] = tested on: HEK293 cells that were overexpressing type 1 muscarinic acetylcholine receptors (mAchR1s); assay: Cell death induced by t-BuOOH or ceramide with IP3-gated Ca2+ release stimulation; format: cell-based, human; settings: ACh 1 μM; t-BuOOH (100 μM, 3 hrs) or ceramide (40 μM, 12 hrs)
Text: P2 purinoceptors are a class of cell surface receptors, subdivided into either the ligand-gated ionotropic receptors (P2X) or G-protein-coupled metabotropic receptors (P2Y)). We focused our work on the P2Y-Rs due to their strong coupling to Gq/11 signaling pathway in astrocytes. Activation of P2Y-receptors stimulates PLCB isoenzymes, increasing inositol triphosphate (IP3) formation and subsequent Ca^2+ mobilization from thapsigargin sensitive stores in the endoplasmic reticulum (ER). Thapsigargin is a specific inhibitor of the sarco-endoplasmic reticulum Ca^2+ ATPases (SERCAs). As mentioned above, IP3-mediated Ca^2+ release is efficiently sequestered by mitochondria, due to its physically close proximity the Ca^2+ channel pore. Increased mitochondrial Ca^2+ uptake via the Ca^2+ uniporter rapidly stimulates Ca^2+ sensitive dehydrogenases and subsequently, increases respiration and ATP production. […] Another important point to make with regard to mitochondrial Ca^2+ signaling is that high matrix Ca^2+ is generally thought to sensitize cells to cell death stimuli. During prolonged periods or with sufficiently high concentrations, matrix Ca^2+ induces opening of the mitochondrial permeability transition pore (MPT). Recent work has identified the mitochondrial targeted cyclophilin D as a key player in Ca^2+ stimulated cell death. […]

[2] = tested on: Rose Bengal (RB)-induced cerebral infarcts in mouse cortex; assay: RB-induced photothrombosis lesion size in parietal cortex of GFAP-GFP transgenic mice (confocal); format: in vivo; settings: 24 and 48 hours post-ischemia; with versus without MRS2365
Text: A precise clot in a blood vessel is induced using the photosensitive dye Rose Bengal (RB) in the mouse cortex. The blood vessels were simultaneously imaged by injecting the red fluorescent dye […] into the mouse circulation. The targeted blood vessel is illuminated by a 543-nm laser after tail vein injection of RB. RB is activated by the laser and interacts with molecular oxygen to form singlet oxygen, which is known to damage endothelial cells within the blood vessel, thereby triggering the natural clotting cascade and leading to formation of a clot. Pharmacological agents can be introduced at the time of photoactivation which also causes the breakdown of the blood-brain barrier.
The parietal cortex of GFAP-GFP transgenic mice was imaged using confocal microscopy and a 40×NA 0.8 or 10×NA 0.45 objective. The same region of the cortex was periodically imaged prior to RB injection, and 10, 20, 30, and 40 minutes post-RB injection. RB is impermeable to the BBB and is cleared quickly under physiological conditions.
The parietal cortex of GFAP-GFP transgenic mice was imaged using confocal microscopy and a 10×0.45 NA objective. […] The size of the lesion was calculated in Image J by tracing the region of the cortex that was void of GFP expressing astrocytes. […]

[3] = tested on: astrocytes; assay: Mitochondrial membrane potential ΔΨ estimated as log(Fmito/Fcyto) with TMRE; format: cell-based, mouse
Procedure: (§1) Mitochondrial membrane potentials (ΔΨs) was measured as previously described using the potential sensitive dye tetra-methyl rhodamine ethyl ester (TMRE, Molecular Probes, #T-669) (Lin and Lechleiter, 2002). Images were acquired with a 60× oil 1.4 NA objective on a Nikon PCM2000 confocal microscope custom adapted for two-photon imaging. A Ti-sapphire Coherent Mira 900 Laser pumped with a 5W Verdi laser (Coherent Inc., Santa Clara, Calif.) was used to excite TMRE at 800 nm A neutral-density filter wheel was used to attenuate the laser intensity so that no detectable photobleaching of TMRE was observed.
We confirmed this by directly measuring the effect of ATP, ATP plus XeC and IP3-BM treatments on ΔΨ. Cultured cells were labeled with TMRE (200 nM) and imaged with a two-photon microscope as described above. ΔΨ was estimated as the log (Fmito/Fcyto) where Fmito is the peak fluorescent intensity observed in single mitochondria (Farkas et al., 1989; Lin et al., 2005). The mean values of individual mitochondria from a single cell were used for the mitochondrial potential estimate. Fcyto represents the lowest value of TMRE fluorescence observed within the boundaries of the same cell. […] FIG. 5E depicts a histogram plot showing average mitochondrial membrane potentials before and after treatment. The mean resting ΔΨs for untreated (Buffer), ATP-treated, ATP plus XeC-treated and IP3-BM-treated were 1.84+0.01 (n=78 mitochondria, pooled from 2 experiments), 1.84+0.01 (n=85 mitochondria), 1.85+0.01 (n=80 mitochondria) and 1.86+0.01 (n=48 mitochondria), respectively. Astrocyte cultures were then exposed to their respective treatments and the same fields of mitochondria were imaged 10 minutes later.

[4] = tested on: astrocytes; assay: Fura-2 two-photon imaging of intracellular Ca2+ response; format: cell-based, mouse; settings: for Ca2+ response: then IP3-BM
Procedure: Ca^2+ activity was imaged as previously described (Camacho and Lechleiter, 1995). In brief, cultured astrocytes were incubated with the fura-2 am (Molecular Probes, #F-1221) 30 min prior to the experiment. Images were acquired with two-photon excitation (800 nm) at the rate of 1.5 images/ sec. […] Images were analyzed with Image J and ANALYZE® software (the Mayo Foundation, Rochester, MN). The D-enantiomer of the 1P3-BM ester was synthesized by Stuart Conway in the Cambridge University Chemical Laboratory by using a modification of the protocol of Tsien and co-workers (Li et al., 1997).
The primary response of glial cells to extracellular ATP is an increase in intracellular Ca^2+. To investigate whether the protective effect of ATP could be initiated by a Ca^2+ response, we loaded cultures of astrocytes with the Ca^2+ indicator dye Fura-2 AM (10 μM for 30 minutes). Fura-2 fluorescence was imaged with 2-photon microscopy using 800 nm excitation. At this wavelength, fluorescence is primarily due to the Ca^2+ free form of fura-2. […] When young astrocyte cultures were exposed to extracellular ATP (10 μM for 10 minutes), the peak intracellular Ca^2+ (−ΔF/F) was increased to 0.46±0.02 (n=25, pooled from 2 experiments). […] We tested whether the ATP-induced Ca^2+ response could be attributed to the metabotropic pathway, since IP3 mediated Ca^2+ release can stimulate mitochondrial energy production as well as sensitize mitochondria to apoptotic stimuli. Astrocytes cultured from old mice were pretreated with Xestospongin C (XeC, 25 μM for 30 minutes), which is a competitive inhibitor of IP3 binding to the IP3R. […] This is consistent with other reports showing that activation of the ionotropic P2X receptor activation also increases Ca^2+ in cultured astrocytes. To determine whether the metabotropic pathway was involved with the protective effect of extracellular ATP, we subsequently exposed the XeC/ATP treated astrocytes to oxidative stress. As described above, the perfusate contained t-BuOOH (100 μM) and TMRE (200 nM) to monitor ΔΨ. Under these experimental conditions, the average time until ΔΨ collapse was reduced to 5.48±0.22 (n=23, pooled from 2 experiments) in young astrocytes (FIG. 1C) and to 4.02±0.18 h (n=19, pooled from 2 experiments) in old astrocytes (FIG. 2C). […] We concluded that the protective effect of ATP on astrocytes was mediated by P2Y-receptors (P2Y-Rs).

[5] = tested on: astrocytes; assay: Time until mitochondrial membrane potential (ΔΨ, TMRE) collapse during t-BuOOH oxidative stress; format: cell-based, mouse; settings: for average time until ΔΨ collapse: XeC 25 μM pretreatment + ATP 10 μM, then t-BuOOH 100 μM; for time until ΔΨ collapse: then t-BuOOH
Procedure: Primary cultures of astrocytes were prepared as previously published (Lin et al., 2005). C57BL/6 male mice were purchased from the National Institute of Aging and maintained in standard accredited housing conditions at the University of Texas Health Science Center Animal Facility. Animal protocols were approved by our Institutional Animal Care Use Committee. Astrocytes were cultured in DMEM F-12 media (Invitrogen, # 11039-021) supplemented with 2 mM glutamine, nonessential amino acids, 10% fetal calf serum, 100 U/ml penicillin/streptomycin (Cambrex BioScience Walkersville, #17-602E) and 1% fungizone (Invitrogen, #15290-018) at 37° C. in an atmosphere containing 5% CO2. The culture medium was changed every 3-5 days. Confluent cells were gently removed by a trypsin EDTA solution and re-plated on 35 mm glass bottom chambers (Bioptechs #04200415C) prior to imaging experiments 3-4 days later. Cells were maintained in plastic culture flasks until the final re-seeding of cells onto a glass bottom chamber and were passed up to 3 times for astrocyte only experiments. For co-culture experiments with neurons, primary astrocytes were plated directly onto corning transwell-clear permeable supports, which physically separates the two cell-types by ˜1 mm (# 07-200-170, Fisher scientific). Astrocytes were cultured in transwells until they were ˜70% confluent. Mouse cortical neurons (Cambrex Bio Science Walkersville Inc., # M-CX-300) were then cultured onto 6 well mat-tek glass bottom plates and maintained in Neurobasal Medium (Invitrogen, # 21103-049), 2 mM L-Glutamine (Cambrex BioScience Walkersville, #17-605E), 100 U/ml penicillin/streptomycin (Cambrex BioScience Walkersville, #17-602E) and B-27 with (Invitrogen, #17504-044) and without antioxidants (Invitrogen, #10889-038), which controls glia contamination to less than 0.5%. The transwell supports with cultured astrocytes were placed in the neuron seeded glass bottom chambers for four days before imaging and both cell types were then maintained in neuronal media. For neuron only experiments, the astrocytes on the transwell supports were removed prior to treatments and imaging.
as §1
To investigate this, primary cultures of astrocytes were prepared from the brains of young (4-6 months) and old (26-28 months) mice and re-plated on glass coverslips prior to each imaging experiment as previously described. Seeded glass coverslips were then sealed in an open chamber (Bioptechs Delta T) and perfused at 37° C. with the potential sensitive dye tetramethyl rhodamine ethyl ester (TMRE, 200 nM, Molecular Probes/Invitrogen) to label astrocyte mitochondria. Mitochondrial membrane potentials (ΔΨs) were measured every 5 minutes using two-photon microscopy. Each image is a maximum intensity projection of a z-stack of six optical sections (1-μm steps). Scale bar is 10 μm. Plated cells were continuously perfused at 37° C. with culture medium containing TMRE (200 nM) and imaged with 2-photon microscopy (800 nm). Oxidative stress was applied to the cells in the perfusate with t-BuOOH (100 μM). Cell viability was then monitored by the collapse of ΔΨ (TMRE fluorescence) to 10% of its initial value. The time course of ΔΨ collapse is plotted for 3 astrocytes (A1, A2, A3) in each culture (FIGS. 1B and 2B). Fluorescent units are scaled to 100% at 0 hours. […]

CC(=O)OCC[N+](C)(C)C [ACh] was tested, and the cell death [1] was “significantly higher”.
For CSc1nc(N)c2ncn([C@H]3[C@H](O)[C@H](O)[C@]4(COP(=O)(O)OP(=O)(O)O)C[C@H]34)c2n1 [MRS2365, N-methanocarba-2MeSADP], the “size of the lesion (cortex void of GFP expressing astrocytes)” value [2] was “greatly reduces the size of the lesion”.
For C1CCC[C@H]2CCCN3CC[C@@H](CCCCCC[C@@H]4CCCN5CC[C@@H](CC1)O[C@@H]45)O[C@@H]23 [XeC, Xestospongin C], the “ΔΨ (log Fmito/Fcyto) after treatment” value ([3]; pretreated with XeC and then exposed to ATP) was 1.87±0.01, the “peak Ca2+ response” value ([4]; old astrocytes, XeC 25 μM 30 min pretreatment, then ATP 10 μM) was 0.28±0.04 and the “Ca2+ response” value ([4]; old astrocytes, XeC 25 μM 30 min pretreatment) was 0.13±0.01. The “Ca2+ response” value ([4]; young astrocytes, XeC 25 μM 30 min pretreatment) was 0.11±0.01, the “average time until ΔΨ collapse” value ([5]; old astrocytes) was 4.02 ± 0.18 h and the “time until ΔΨ collapse” value ([5]; old astrocytes, XeC pretreatment + IP3-BM) was 4.48±0.07. For the same compound, the “average time until ΔΨ collapse” value ([5]; young astrocytes) was 5.48 ± 0.22 h and the “time until ΔΨ collapse” value ([5]; young astrocytes, XeC pretreatment + IP3-BM) was 4.73±0.05.
CCCC(=O)OCOP(=O)(OCOC(=O)CCC)O[C@@H]1[C@H](O)[C@H](O)[C@@H](OP(=O)(OCOC(=O)CCC)OCOC(=O)CCC)[C@H](OP(=O)(OCOC(=O)CCC)OCOC(=O)CCC)[C@H]1O [IP3-BM, butyryloxymethyl ester of IP3] was tested, and the “ΔΨ (log Fmito/Fcyto) after treatment” value ([3]; treating astrocytes for 10 minutes) was 2.02±0.01, the “peak Ca2+ response” value ([4]; old astrocytes, IP3-BM 25 μM) was 0.24±0.02 and the “peak Ca2+ response” value ([4]; young astrocytes, IP3-BM 25 μM) was 0.34±0.02. The “time until ΔΨ collapse” value ([5]; old astrocytes, IP3-BM 25 μM fifteen minutes) was 6.32±0.35 and the “time until ΔΨ collapse” value ([5]; young astrocytes, IP3-BM 25 μM fifteen minutes) was 6.82±0.32.
